This passage reports IC50 results from patent publication US20240010684A1, “MASP INHIBITORY COMPOUNDS AND USES THEREOF” (BAYER AKTIENGESELLSCHAFT, priority 2020, published 2024).

Molecules are shown by their SMILES. Where a SMILES comes first, the peptide text is derived from it. Bridges are numbered along the chain shown (N, C = ends). [ ]: non-standard residue; d: D form. Oic = O=C(O)[C@@H]1C[C@@H]2CCCC[C@@H]2N1; tBuAla = CC(C)(C)C[C@H](N)C(=O)O; Pen = CC(C)(S)[C@H](N)C(=O)O; Ahx = NCCCCCC(=O)O

One test deals with human MASP2 (Homo sapiens (Human), UniProt O00187). Kind of test: Biochemical human MASP2 assay (FRET substrate). The note with it: Average IC50; recombinant human MASP2; read-out: human MASP2 IC50. In a few lines:
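Mature recombinant human MASP2, expressed in HEK293 and purified by Ni-NTA affinity, was reacted with a DABCYL FRET peptide substrate (added as a 60 μM solution) for 60-120 min at 32 C. Fluorescence increase was read at ex 340/em 490 nm; IC50 was derived from % inhibition versus compound concentration.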

For the next test, the target named is rat MASP2 (Rattus norvegicus (Rat), UniProt Q9JJS8). Kind of test: Biochemical rat MASP2 assay (FRET substrate). The note with it: Average IC50; recombinant rat MASP2; read-out: rat MASP2 IC50. From the text:
The MASP1 or MASP2 expression vectors were transfected into the HEK293 (ATCC No. CRL-1573) cell line using Lipofectamine LTX® Reagent (Thermo-Fischer), as described by the manufacturer. […] The MASP1 and M[…] were purified from the conditioned media by affinity chromatography on Ni-NTA Superflow resin (Qiagen) as described by the manufacturer.

For the next test, the target named is human MASP1 (Homo sapiens (Human), UniProt P48740). The experiment in a line: Biochemical human MASP1 assay (FRET substrate). The note with it: Average IC50; recombinant human MASP1; read-out: human MASP1 IC50. In short, it runs like this: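 Recombinant human MASP1 (aa 297-699, C-terminal His tag, HEK293-expressed, Ni-NTA purified) diluted to 20 nM in 50 mM HEPES pH 8,0, 100 mM NaCl, 0,01% CHAPS, 0.5 mM glutathione, preincubated with compound in DMSO; reaction started with 20 μM ABZ/Dnp FRET substrate solution. Fluorescence (ex 320/em 420 nm) after 60-120 min at 32 C; IC50 from % inhibition.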
Chain of human MASP1 (P48740 other isoform, or with tags, fused parts or gaps): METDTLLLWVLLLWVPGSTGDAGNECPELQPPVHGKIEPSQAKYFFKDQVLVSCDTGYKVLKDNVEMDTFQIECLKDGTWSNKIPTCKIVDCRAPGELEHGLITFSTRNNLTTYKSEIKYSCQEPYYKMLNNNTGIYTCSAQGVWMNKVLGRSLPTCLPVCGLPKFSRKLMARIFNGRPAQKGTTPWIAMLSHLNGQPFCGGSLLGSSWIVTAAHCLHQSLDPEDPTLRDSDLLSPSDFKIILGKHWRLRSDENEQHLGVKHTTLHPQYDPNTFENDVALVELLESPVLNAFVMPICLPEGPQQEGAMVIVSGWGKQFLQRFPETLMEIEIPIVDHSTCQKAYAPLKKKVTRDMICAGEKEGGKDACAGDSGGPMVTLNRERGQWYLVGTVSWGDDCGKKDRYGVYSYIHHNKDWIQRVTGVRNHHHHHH

In a further test the target is rat MASP1 (Rattus norvegicus (Rat), UniProt Q8CHN8). The experiment in a line: Biochemical rat MASP1 assay (FRET substrate). The note with it: Average IC50; recombinant rat MASP1; read-out: rat MASP1 IC50. From the text:
A truncated cDNA sequence of rat MASP1encoding the fragment corresponding to the amino acids 302-704 with a C-terminal His Tag and N-terminal Ig-kappa secretion signal (SEQ ID No: 4) was subcloned into the mammalian expression vector pcDNA3.1 (Invitrogen).
The MASP1 or MASP2 expression vectors were transfected into the HEK293 (ATCC No. CRL-1573) cell line using Lipofectamine LTX® Reagent (Thermo-Fischer), as described by the manufacturer. The mature form of the recombinant rat MASP1 and MASP2 proteases were secreted into the culture medium. The MASP1 and MASP2 proteins were purified from the conditioned media by affinity chromatography on Ni-NTA Superflow resin (Qiagen) as described by the manufacturer.
4.2 Biochemical Rat MASP1 Assay.
Recombinant rat MASP1 enzyme produced in the HEK 293 cells was diluted in the reaction buffer (50 mM HEPES pH 8,0; 100 mM NaCl; 0,01% CHAPS; 0.5 mM Gluthathione) to the concentration of 4 nM and 25 μl was transferred into each single well of 384-well white microtiter plate (Greiner Bio One 781075). 1 μl of the inhibitor compound solution (dissolved in DMSO, at the corresponding concentration) or pure DMSO as a control was added to the same wells. The enzymatic reaction was initiated by addition of 25 μl of 40 μM solution of the FRET substrate Dabcyl-[…]-Glu(Edans)-NH2; (Dabcyl-4-((4-(dimethylamino)phenyl)azo)benzoic acid; Edans-5-[(2-Aminoethyl) amino]naphthalene-1-sulfonyl; custom synthesis by Jerini Peptide Technologies, Berlin) in the reaction buffer. The microtiter plate was incubated for 60-120 min at the temperature of 32 C. The increase of fluorescence intensity was measured in appropriate fluorescence plate reader (e.g. TECAN Ultra) using excitation wavelength of 340 nm and emission wavelength of 490 nm. IC50 values were calculated from percentage of inhibition of rat […] activity as a function of test compound concentration.

For test [1], the system named is Human C3-DEPOSITION SERUM. The experiment in a line: C3 deposition assay, human serum on mannan-coated plates. In kind it is biochemical. The note with it: Average IC50, read-out: Human C3-DEPOSITION SERUM IC50. In short, it runs like this: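 Plates coated overnight at 4° C with S. cerevisiae mannan (10 μg/mL, pH 9.6), blocked with 1% BSA in TBS 2 h at 37° C; washes in TBS/0.05% Tween 20/5 mM CaCl2. Antibodies diluted in wash buffer with 0.5% BSA. Colorimetric read-out at 450 nm.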

Chain of human MASP2 (O00187 other isoform, or with tags, fused parts or gaps): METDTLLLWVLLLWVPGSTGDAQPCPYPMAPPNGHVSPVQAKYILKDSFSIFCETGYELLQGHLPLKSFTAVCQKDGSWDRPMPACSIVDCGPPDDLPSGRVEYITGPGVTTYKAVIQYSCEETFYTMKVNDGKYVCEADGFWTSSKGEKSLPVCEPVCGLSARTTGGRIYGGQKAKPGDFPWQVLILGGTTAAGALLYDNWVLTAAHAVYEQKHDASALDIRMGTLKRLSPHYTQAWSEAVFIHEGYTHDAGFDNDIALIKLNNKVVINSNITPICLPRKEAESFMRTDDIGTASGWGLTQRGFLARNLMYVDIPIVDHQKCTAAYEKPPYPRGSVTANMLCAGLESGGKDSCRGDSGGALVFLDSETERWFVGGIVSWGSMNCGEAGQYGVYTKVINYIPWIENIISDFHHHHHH
Chain of rat MASP1 (Q8CHN8 other isoform, or with tags, fused parts or gaps): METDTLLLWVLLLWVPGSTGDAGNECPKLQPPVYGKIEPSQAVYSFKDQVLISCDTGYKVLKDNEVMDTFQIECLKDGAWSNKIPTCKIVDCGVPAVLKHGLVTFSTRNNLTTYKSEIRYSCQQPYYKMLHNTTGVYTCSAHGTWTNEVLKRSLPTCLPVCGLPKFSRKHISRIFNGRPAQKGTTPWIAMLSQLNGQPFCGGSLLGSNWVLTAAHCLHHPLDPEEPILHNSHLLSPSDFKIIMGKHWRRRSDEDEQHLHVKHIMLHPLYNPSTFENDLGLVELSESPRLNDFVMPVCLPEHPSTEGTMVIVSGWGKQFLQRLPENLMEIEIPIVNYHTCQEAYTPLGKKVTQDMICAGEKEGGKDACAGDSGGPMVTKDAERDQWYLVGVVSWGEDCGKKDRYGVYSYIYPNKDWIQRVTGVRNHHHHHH
Chain of rat MASP2 (Q9JJS8 other isoform, or with tags, fused parts or gaps): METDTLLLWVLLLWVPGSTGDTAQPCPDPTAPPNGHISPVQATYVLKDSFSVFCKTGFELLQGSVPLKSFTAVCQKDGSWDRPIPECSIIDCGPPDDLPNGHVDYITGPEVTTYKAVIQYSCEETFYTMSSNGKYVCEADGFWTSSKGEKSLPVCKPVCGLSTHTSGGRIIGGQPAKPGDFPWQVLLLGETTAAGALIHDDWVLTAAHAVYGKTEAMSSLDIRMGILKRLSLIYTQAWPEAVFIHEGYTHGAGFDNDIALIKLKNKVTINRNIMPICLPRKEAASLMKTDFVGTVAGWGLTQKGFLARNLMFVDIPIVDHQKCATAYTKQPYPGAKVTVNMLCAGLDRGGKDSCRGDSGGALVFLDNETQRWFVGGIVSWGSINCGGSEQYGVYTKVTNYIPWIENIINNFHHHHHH

As usually defined, the IC50 is the midpoint of a concentration-inhibition curve. `CC[C@H](C)[C@@H]1NC(=O)CCCNC(=O)[C@H](CC(=O)O)NC(=O)[C@@H]2CCCN2C(=O)[C@H]([C@@H](C)CC)NC(=O)[C@H]2NC(=O)[C@H]([C@@H](C)CC)NC(=O)[C@@H]3CCCN3C(=O)[C@@H]3CCCN3C(=O)[C@H](CC(C)(C)C)NC(=O)[C@H](CO)NC(=O)[C@H](CCCNC(=N)N)NC(=O)[C@H](CO)NC(=O)[C@H](CSSC2(C)C)NC1=O` [Example 35]: the IC50 at human MASP2 worked out at 0.017 µM; at rat MASP2 it was 0.024 µM; on human MASP1, 0.0041 µM; at rat MASP1, 0.063 µM; in test [1], 0.0033 µM.
Taken in the same sequence, the figures for `CC[C@H](C)[C@@H]1NC(=O)CNC(=O)CNC(=O)[C@H](C)NC(=O)[C@@H](CC(=O)O)NC(=O)[C@@H]2CCCN2C(=O)[C@H]([C@@H](C)CC)NC(=O)[C@H]2NC(=O)[C@H]([C@@H](C)CC)NC(=O)[C@@H]3CCCN3C(=O)[C@@H]3CCCN3C(=O)[C@H](CC(C)(C)C)NC(=O)[C@H](CO)NC(=O)[C@H](CCCNC(=N)N)NC(=O)[C@H](CO)NC(=O)[C@H](CSSC2(C)C)NC1=O` [Example 39] (cyclo(AGGICSRS[tBuAla]PPI[Pen]IP[dD]); disulfide 5-13) were 0.075 µM, 0.008 µM, 0.006 µM, 0.044 µM and 0.0336 µM.
Taken in the same sequence, the figures for `CC[C@H](C)[C@@H]1NC(=O)CCCCCNC(=O)[C@H]([C@@H](C)CC)NC(=O)[C@H]2NC(=O)[C@H]([C@@H](C)CC)NC(=O)[C@@H]3CCCN3C(=O)[C@@H]3CCCN3C(=O)[C@H](CC(C)(C)C)NC(=O)[C@H](CO)NC(=O)[C@H](CCCNC(=N)N)NC(=O)[C@H](CO)NC(=O)[C@H](CSSC2(C)C)NC1=O` [Example 52, N-{3-[(5aS,11S,14S,17S,20S,23R,26S,36S,39R,42S,44aS)-26,36,42-tri[(2S)-butan-2-yl]-11-(2,2-dimethylpropyl)-14,20-bis(hydroxymethyl)-45,45-dimethyl-5,10,13,16,19,22,25,28,35,38,41,44-dodecaoxodotetracontahydro-1H,5H-23,39-(methanodithiomethano)dipyrrolo[2,1-1:2′,1′-o][1,4,7,10,13,16,19,22,25,28,31,34]dodecaazacyclotetracontin-17-yl]propyl}guanidine] (cyclo([Ahx]ICSRS[tBuAla]PPI[Pen]I); disulfide 3-11) were 0.0093 µM, 0.0116 µM, 0.0079 µM, 0.079 µM and 0.0237 µM.
In the case of `CC[C@H](C)[C@@H]1NC(=O)[C@H](C)NC(=O)CCCCCNC(=O)[C@@H]2CCCN2C(=O)[C@H]([C@@H](C)CC)NC(=O)[C@H]2NC(=O)[C@H]([C@@H](C)CC)NC(=O)[C@@H]3CCCN3C(=O)[C@@H]3CCCN3C(=O)[C@H](CC(C)(C)C)NC(=O)[C@H](CO)NC(=O)[C@H](CCCNC(=N)N)NC(=O)[C@H](CO)NC(=O)[C@H](CSSC2(C)C)NC1=O` [Example 53, N-{3-[(6S,9S,12S,15S,18R,21S,24S,33aS,39S,42R,45S,47aS,52aS)-21,39,45-tri[(2S)-butan-2-yl]-6-(2,2-dimethylpropyl)-9,15-bis(hydroxymethyl)-24,53,53-trimethyl-5,8,11,14,17,20,23,26,33,38,41,44,47,52-tetradecaoxopentacontahydro-1H,5H-18,42-(methanodithiomethano)tripyrrolo[2,1-c:2′,1′-o:2″,1″-r][1,4,7,10,13,16,19,22,25,28,31,34,37,40]tetradecaazacyclohexatetracontin-12-yl]propyl}guanidine] (cyclo(AICSRS[tBuAla]PPI[Pen]IP[Ahx]); disulfide 3-11), the IC50 on human MASP2 was 0.0835 µM; on rat MASP2, 0.019 µM; at human MASP1, 0.00675 µM; at rat MASP1, 0.096 µM; in test [1] it was 0.0445 µM.
Taken in the same sequence, the figures for `CC[C@H](C)[C@@H]1NC(=O)CN(C)C(=O)CCCCCNC(=O)[C@@H]2CCCN2C(=O)[C@H]([C@@H](C)CC)NC(=O)[C@H]2NC(=O)[C@H]([C@@H](C)CC)NC(=O)[C@@H]3CCCN3C(=O)[C@@H]3CCCN3C(=O)[C@H](CC(C)(C)C)NC(=O)[C@H](CO)NC(=O)[C@H](CCCNC(=N)N)NC(=O)[C@H](CO)NC(=O)[C@H](CSSC2(C)C)NC1=O` [Example 54, N-{3-[(6S,9S,12S,15S,18R,21S,33aS,39S,42R,45S,47aS,52aS)-21,39,45-tri[(2S)-butan-2-yl]-6-(2,2-dimethylpropyl)-9,15-bis(hydroxymethyl)-25,53,53-trimethyl-5,8,11,14,17,20,23,26,33,38,41,44,47,52-tetradecaoxopentacontahydro-1H,5H-18,42-(methanodithiomethano)tripyrrolo[2,1-c:2′,1′-o:2″,1″-r][1,4,7,10,13,16,19,22,25,28,31,34,37,40]tetradecaazacyclohexatetracontin-12-yl]propyl}guanidine] were 0.033 µM, 0.018 µM, 0.0085 µM, 0.18 µM and 0.0396 µM.
For `CC[C@H](C)[C@@H]1NC(=O)CCCCCNC(=O)CC[C@@H](C(N)=O)NC(=O)[C@@H]2CCCN2C(=O)[C@H]([C@@H](C)CC)NC(=O)[C@H]2NC(=O)[C@H]([C@@H](C)CC)NC(=O)[C@@H]3C[C@@H]4CCCC[C@@H]4N3C(=O)[C@@H]3CCCN3C(=O)[C@H](CC(C)C)NC(=O)[C@H](CO)NC(=O)[C@H](CCCNC(=N)N)NC(=O)[C@H](CO)NC(=O)[C@H](CSSC2(C)C)NC1=O` [Example 75] ([Ahx]ICSRSLP[Oic]I[Pen]IPE-NH2; disulfide 3-11; lactam N-14), the IC50 is 0.014 µM at human MASP2, 0.0014 µM at rat MASP2, 0.0072 µM on human MASP1 and 0.027 µM at rat MASP1.
As to `CC[C@H](C)[C@@H]1NC(=O)CNC(=O)[C@H](CC(=O)O)NC(=O)[C@@H]2CCCN2C(=O)[C@H]([C@@H](C)CC)NC(=O)[C@@H]2CSSC[C@H](NC1=O)C(=O)N[C@@H](CO)C(=O)N[C@@H](CCCNC(=N)N)C(=O)N[C@@H](CO)C(=O)N[C@@H](CC(C)C)C(=O)N1CCC[C@H]1C(=O)N1CCC[C@H]1C(=O)N[C@@H]([C@@H](C)CC)C(=O)N2` [Ref. No 7, reference compound] (cyclo(CIPDGICSRSLPPI); disulfide 1-7), the IC50 at human MASP2 is 0.895 µM; on rat MASP2 it was 0.232 µM; at human MASP1 it was 0.145 µM; on rat MASP1, 1 µM.
Taken in the same sequence, the figures for `CC[C@H](C)[C@@H]1NC(=O)[C@@H]2CCCN2C(=O)[C@@H]2CCCN2C(=O)[C@H]([C@@H](C)CC)NC(=O)[C@@H]2CSSC[C@H](NC(=O)[C@H]([C@@H](C)O)NC(=O)[C@H](CCCCN)NC(=O)[C@H](CO)NC1=O)C(=O)N[C@@H](CCCNC(=N)N)C(=O)NCC(=O)N[C@@H](CC(=O)O)C(=O)N1CCC[C@H]1C(=O)N[C@@H](Cc1ccccc1)C(=O)N2` [Ref. No 12, reference compound] (cyclo(RGDPFCIPPISKTC); disulfide 6-14) were 5 µM, 1 µM, 4.8 µM and 1 µM.
